Source: patent publication US20230302013A1, “METHOD OF TREATING VIRAL-INDUCED COGNITIVE D[…] TARGETING LEAKY RyR2 CHANNELS” (The Trustees of Columbia University in the City of New York, priority 2022, published 2023)
“Also recorded” adds a separate entry of the source.

Assays:
[1] = molecular target: T1, RyR2 (Homo sapiens, UniProt Q92736); assay type: biochemical; conditions: COVID-19 patient brain tissue lysates (Ctx, CB) treated ex vivo with 10 μM compound at 4° C.; FIGS. 3A and B; p<0.05 vs untreated COVID-19
T1 construct: RyR2 was immunoprecipitated from 1.5 mg of tissue lysate using an anti-RyR2 specific antibody; from tissue; host or cells: brain tissue (cortex, cerebellum) of COVID-19 patients and controls

[2] = molecular target: T1, RyR2; assay: [3H]ryanodine binding to immunoprecipitated RyR2 (surrogate of channel open probability / leak); assay type: biochemical
Description: RyR2 was immunoprecipitated from 1.5 mg of tissue lysate using an anti-RyR2 specific antibody (25 μg) in 1.0 ml of a modified RIPA buffer overnight at 4° C. The immune complexes were incubated with protein A-Sepharose beads (Sigma) at 4° C. for 1 h, and the beads were washed three times with RIPA buffer, followed by 2 washes with ryanodine binding buffer (10 mM Tris-HCl, pH 6.8, 1 M NaCl, 1% CHAPS, 5 mg/ml phosphatidylcholine, and protease inhibitors). Immunoprecipitates were incubated in 0.2 ml of binding buffer containing 20 nM [^3H] ryanodine and either of 150 nM and 20 μm free Ca^2+ for 1 h at 37° C. Samples were diluted with 1 ml of ice-cold washing buffer (25 mm Hepes, pH 7.1, 0.25 m KCl) and filtered through Whatman GF/B membrane filters pre-soaked with 1% polyethyleneimine in washing buffer. Filters were washed three times with 5 ml of washing buffer. The radioactivity remaining on the filters is determined by liquid scintillation counting to obtain bound [^3H] ryanodine. Nonspecific binding was determined in the presence of 1000-fold excess of non-labeled ryanodine.

T1 sequence (Q92736 whole entry): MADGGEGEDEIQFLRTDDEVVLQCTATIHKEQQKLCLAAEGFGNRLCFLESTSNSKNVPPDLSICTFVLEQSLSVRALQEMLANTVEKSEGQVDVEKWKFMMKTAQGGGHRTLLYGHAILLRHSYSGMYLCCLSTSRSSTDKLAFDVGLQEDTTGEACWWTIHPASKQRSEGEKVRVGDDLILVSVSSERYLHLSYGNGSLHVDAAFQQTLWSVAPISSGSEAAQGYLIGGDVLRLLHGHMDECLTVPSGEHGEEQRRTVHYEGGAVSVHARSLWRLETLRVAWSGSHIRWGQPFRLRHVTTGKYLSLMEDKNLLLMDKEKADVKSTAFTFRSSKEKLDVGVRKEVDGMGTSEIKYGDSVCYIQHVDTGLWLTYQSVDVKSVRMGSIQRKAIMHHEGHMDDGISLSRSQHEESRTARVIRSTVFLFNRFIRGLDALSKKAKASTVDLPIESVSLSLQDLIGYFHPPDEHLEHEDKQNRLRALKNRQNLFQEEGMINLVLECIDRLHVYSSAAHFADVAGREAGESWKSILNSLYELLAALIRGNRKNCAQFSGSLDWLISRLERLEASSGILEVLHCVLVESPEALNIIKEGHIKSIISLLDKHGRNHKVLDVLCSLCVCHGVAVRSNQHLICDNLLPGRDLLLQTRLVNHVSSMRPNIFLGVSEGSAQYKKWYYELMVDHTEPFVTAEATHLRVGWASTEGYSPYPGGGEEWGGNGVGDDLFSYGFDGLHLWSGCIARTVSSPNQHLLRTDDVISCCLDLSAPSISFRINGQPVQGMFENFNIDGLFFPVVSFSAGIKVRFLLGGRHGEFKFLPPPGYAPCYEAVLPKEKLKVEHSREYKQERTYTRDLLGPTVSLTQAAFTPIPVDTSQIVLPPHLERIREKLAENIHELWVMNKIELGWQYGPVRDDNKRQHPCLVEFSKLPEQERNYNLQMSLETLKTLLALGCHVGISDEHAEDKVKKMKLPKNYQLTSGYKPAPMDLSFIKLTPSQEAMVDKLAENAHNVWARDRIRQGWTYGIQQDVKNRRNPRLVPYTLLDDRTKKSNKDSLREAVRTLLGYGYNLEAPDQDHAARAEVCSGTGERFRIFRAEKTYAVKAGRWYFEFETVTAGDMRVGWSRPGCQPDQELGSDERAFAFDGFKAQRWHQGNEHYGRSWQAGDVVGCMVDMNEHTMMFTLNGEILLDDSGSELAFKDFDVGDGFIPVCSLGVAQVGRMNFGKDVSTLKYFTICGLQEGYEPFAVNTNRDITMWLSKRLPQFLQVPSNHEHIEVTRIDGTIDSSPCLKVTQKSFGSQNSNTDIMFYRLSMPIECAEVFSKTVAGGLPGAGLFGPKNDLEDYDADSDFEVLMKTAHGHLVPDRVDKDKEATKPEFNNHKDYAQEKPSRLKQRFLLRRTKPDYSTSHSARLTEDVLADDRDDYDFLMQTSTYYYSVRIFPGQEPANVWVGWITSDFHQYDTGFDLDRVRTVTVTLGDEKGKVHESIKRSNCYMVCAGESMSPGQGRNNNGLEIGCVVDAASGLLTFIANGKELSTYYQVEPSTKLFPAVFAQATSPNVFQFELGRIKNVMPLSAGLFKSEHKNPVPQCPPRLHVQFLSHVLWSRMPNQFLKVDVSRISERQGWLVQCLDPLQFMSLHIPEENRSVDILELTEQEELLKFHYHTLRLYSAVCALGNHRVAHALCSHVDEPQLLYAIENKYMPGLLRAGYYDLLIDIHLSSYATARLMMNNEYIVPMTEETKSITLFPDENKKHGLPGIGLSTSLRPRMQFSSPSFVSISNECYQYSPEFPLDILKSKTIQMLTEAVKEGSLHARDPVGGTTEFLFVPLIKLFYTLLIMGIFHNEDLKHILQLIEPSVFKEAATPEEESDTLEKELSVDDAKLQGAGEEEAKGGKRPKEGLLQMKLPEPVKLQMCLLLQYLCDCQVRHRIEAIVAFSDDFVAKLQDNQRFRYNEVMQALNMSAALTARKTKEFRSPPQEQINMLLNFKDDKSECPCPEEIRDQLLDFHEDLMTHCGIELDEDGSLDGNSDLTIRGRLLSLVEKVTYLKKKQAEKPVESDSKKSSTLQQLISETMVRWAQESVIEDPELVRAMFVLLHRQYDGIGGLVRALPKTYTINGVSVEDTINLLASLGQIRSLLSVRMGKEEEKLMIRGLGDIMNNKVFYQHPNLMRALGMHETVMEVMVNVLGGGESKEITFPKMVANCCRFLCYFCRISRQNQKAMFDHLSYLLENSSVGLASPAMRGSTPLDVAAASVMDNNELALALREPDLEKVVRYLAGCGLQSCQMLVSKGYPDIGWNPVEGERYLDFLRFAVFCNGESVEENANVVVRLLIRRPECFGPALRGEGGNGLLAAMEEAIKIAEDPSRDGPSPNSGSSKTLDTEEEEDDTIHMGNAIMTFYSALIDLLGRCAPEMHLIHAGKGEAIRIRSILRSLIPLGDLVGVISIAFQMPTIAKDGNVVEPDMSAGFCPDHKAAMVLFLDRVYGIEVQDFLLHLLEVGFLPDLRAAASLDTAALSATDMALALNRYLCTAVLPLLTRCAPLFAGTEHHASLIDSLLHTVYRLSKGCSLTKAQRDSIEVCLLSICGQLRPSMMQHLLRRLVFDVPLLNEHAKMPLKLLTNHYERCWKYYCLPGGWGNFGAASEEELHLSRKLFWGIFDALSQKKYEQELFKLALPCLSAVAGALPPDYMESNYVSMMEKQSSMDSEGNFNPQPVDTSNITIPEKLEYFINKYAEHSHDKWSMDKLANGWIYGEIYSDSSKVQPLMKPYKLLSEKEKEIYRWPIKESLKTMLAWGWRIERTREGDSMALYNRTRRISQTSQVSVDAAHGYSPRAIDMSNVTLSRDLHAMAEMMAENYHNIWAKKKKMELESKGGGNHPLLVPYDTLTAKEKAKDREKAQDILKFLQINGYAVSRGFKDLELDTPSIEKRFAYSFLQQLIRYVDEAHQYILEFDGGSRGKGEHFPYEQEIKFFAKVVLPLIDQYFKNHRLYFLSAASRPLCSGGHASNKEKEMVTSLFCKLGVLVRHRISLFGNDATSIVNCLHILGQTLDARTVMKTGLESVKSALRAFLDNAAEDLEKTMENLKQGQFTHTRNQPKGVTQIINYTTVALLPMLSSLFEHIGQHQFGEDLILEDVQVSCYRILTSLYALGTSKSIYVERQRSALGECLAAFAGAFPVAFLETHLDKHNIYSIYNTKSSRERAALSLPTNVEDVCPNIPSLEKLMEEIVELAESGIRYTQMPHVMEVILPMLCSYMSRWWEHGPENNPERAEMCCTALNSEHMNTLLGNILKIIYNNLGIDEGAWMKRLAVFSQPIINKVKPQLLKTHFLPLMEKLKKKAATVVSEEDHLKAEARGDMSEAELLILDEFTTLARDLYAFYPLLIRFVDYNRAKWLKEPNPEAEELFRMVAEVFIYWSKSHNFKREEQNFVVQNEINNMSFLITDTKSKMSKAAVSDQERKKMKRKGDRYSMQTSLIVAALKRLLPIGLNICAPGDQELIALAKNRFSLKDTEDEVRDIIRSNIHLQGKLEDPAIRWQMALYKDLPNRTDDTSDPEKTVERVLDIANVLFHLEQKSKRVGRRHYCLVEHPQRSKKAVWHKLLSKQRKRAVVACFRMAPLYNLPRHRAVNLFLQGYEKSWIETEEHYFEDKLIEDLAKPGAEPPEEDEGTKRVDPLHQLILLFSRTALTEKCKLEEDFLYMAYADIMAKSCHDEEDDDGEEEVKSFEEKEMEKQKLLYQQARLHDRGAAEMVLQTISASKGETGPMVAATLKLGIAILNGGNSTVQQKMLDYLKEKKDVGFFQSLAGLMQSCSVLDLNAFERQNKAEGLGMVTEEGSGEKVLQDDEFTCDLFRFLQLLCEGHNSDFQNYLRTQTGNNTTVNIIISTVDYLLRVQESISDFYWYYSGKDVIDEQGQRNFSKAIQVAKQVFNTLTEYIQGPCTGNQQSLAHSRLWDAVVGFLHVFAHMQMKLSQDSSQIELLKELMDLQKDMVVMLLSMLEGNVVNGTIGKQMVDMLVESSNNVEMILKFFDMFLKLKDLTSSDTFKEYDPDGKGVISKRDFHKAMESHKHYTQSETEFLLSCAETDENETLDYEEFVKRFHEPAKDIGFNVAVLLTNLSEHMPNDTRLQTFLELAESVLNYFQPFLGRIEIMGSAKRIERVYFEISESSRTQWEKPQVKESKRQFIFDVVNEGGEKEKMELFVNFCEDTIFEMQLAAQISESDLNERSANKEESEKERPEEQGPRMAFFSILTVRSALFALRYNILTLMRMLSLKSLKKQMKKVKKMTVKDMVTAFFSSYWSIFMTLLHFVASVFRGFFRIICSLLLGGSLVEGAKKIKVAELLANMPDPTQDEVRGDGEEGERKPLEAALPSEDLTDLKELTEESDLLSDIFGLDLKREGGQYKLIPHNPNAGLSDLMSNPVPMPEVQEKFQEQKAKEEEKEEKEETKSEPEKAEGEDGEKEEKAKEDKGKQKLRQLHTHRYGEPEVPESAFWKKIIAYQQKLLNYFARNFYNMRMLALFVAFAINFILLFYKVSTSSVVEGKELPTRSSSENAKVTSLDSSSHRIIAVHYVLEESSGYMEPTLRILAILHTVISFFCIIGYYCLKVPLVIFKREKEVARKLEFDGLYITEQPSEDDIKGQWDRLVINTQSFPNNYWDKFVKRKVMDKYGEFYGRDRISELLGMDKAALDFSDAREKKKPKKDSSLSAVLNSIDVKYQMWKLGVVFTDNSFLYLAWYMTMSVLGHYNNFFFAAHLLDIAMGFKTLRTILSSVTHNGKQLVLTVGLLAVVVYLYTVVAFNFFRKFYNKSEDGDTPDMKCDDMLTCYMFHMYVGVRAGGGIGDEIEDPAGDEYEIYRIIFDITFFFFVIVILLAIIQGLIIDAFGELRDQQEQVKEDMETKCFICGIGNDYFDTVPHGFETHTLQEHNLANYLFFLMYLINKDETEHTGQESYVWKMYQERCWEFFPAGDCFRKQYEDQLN
T1 sequence (P68106 whole entry partner): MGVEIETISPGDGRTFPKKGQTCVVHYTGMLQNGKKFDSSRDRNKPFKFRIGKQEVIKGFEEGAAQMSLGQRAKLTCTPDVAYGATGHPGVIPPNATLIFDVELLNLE

COc1ccc2c(c1)CN(Cc1ccc(C(=O)O)cc1)CCS2 [Compound 1]
calstabin2 binding to RyR2 [1]: increased
abnormal RyR2 activity ([3H]ryanodine binding) at resting Ca2+ concentration ([2]; RyR2 immunoprecipitated from COVID-19 brain lysates, 150 nM free Ca2+, as percent of maximum binding (20 μM Ca2+), FIG. 3C, p<0.05 vs untreated COVID-19): decreased
RyR2 channel leak ([2]; ex vivo treatment of COVID-19 patient brain samples): corrected; also recorded: fixed the channel leak
